Source: patent US11427783B2, “Perfuming compositions” (Firmenich SA, priority 2016, dated 2022)
Where two headings read alike, the source gives them in different places.

Test: Volatility of perfuming compounds in air
Type: physicochemical
[1] = Table 5, perfuming compounds having a green note
[2] = Table 6, perfuming compounds having a fruity note
[3] = Table 9, perfuming compounds having a gourmand note
[4] = Table 10, perfuming compounds having a woody note
[5] = Table 8, perfuming compounds having a sweet note

Row | SMILES | Volatility [1] | Volatility (μg/l air) [2] | also measured
1 | COc1nccnc1CCCC(C)C | 195.24 μg/l air |  | 
2 | CCCCC1CCC(=O)O1 (racemic) [(+−)-4-OCTANOLIDE] |  | 108.41 μg/l air | Volatility (μg/l air) [3]: 108.41 μg/l air
3 | C=C1C2CCC(C)(OCC)C1CCC2(C)C (racemic) |  |  | Volatility (μg/l air) [4]: 135.00 μg/l air
4 | CC(C)=CCC/C(C)=C\CO |  |  | Volatility (Table 7, citrus note): 86.02 μg/l air
5 | CC(CC=O)CC(C)(C)C (racemic) [(+−)-3,5,5-TRIMETHYLHEXANAL] | 12045.92 μg/l air |  | 
6 | CC(CC=O)c1ccccc1 (racemic) [(+−)-3-PHENYLBUTANAL] | 227.83 μg/l air |  | 
7 | CCOC(=O)C1OC1(C)c1ccccc1 (stereo not shown) [ETHYL 2,3-EPDXY-3-PHENYLBUTANOATE] |  | 12.97 μg/l air | 
8 | COCCc1ccccc1 [(2-METHOXYETHYL)BENZENE] | 1239.07 μg/l air |  | 
9 | CCCCC1CCCC(=O)O1 (stereo not shown) [5-NONANOLIDE] |  | 23.87 μg/l air | Volatility (μg/l air) [5]: 23.87 μg/l air; Volatility (μg/l air) [3]: 23.87 μg/l air
10 | CC(C)=CC1CC(C)CCO1 (stereo not shown) | 2483.93 μg/l air |  | 
11 | CC(=O)OC/C=C(\C)CCC=C(C)C [(E)-3,7-DIMETHYL-2,6-OCTADIENYL ACETATE] |  | 85.23 μg/l air | 
12 | CC(C)CC(=O)OCc1ccccc1 [BENZYL 3-METHYLBUTANOATE] |  | 63.56 μg/l air | Volatility (μg/l air) [5]: 63.56 μg/l air
13 | CCCCCC1CCCC1O (racemic) [(+−)-2-PENTYL-1-CYCLOPENTANOL] |  |  | Volatility (μg/l air) [5]: 97.79 μg/l air
14 | CCC(C)(O)CCCC(C)C (racemic) | 421.15 μg/l air |  | 
15 | CCC(C)C(=O)OCCc1ccccc1 (racemic) [(+−)-2-PHENYLETHYL 2-METHYLBUTANOATE] |  | 37.73 μg/l air | 
16 | CCOC(=O)/C=C/c1ccccc1 [ETHYL (E)-3-PHENYL-2-PROPENOATE] |  | 20.55 μg/l air | 
17 | CCCC1CCC(O)C(OC)C1 (stereo not shown) [2-METHOXY-4-PROPYL-1-CYCLOHEXANOL] |  |  | Volatility: 189.74 μg/l air
18 | COC(=O)C1C(C)=CCCC1(C)C (racemic) | 2010.91 μg/l air |  | 
19 | CC(=O)OC/C=C/c1ccccc1 [(E)-3-PHENYL-2-PROPENYL ACETATE] |  | 20.47 μg/l air | 
20 | CC=CC(=O)C(C)CC (stereo not shown) [5-METHYL-2-HEPTEN-4-ONE] |  |  | Volatility (μg/l air) [5]: 5525.83 μg/l air
21 | CC1OCCC12NCCS2 (racemic) |  |  | Volatility (μg/l air) [5]: 52.47 μg/l air
22 | CCCOC(C)OCCc1ccccc1 (stereo not shown) [1-PHENYL-2-(1-PROPOXYETHOXY)ETHANE] | 59.63 μg/l air |  | 

Row | SMILES | Volatility [1] | Volatility (μg/l air) [2] | also measured
23 | COc1ccc(OC)c(C(C)(C)C)c1 [2-TERT-BUTYL-1,4-DIMETHOXYBENZENE] |  |  | Volatility (μg/l air) [4]: 82.95 μg/l air
24 | C[C@@H]1CC[C@H]2C(C)(C)[C@H]3C[C@@]12C[C@@H]1OC(C)(C)O[C@@]13C |  |  | Volatility (μg/l air) [4]: 0.00 μg/l air
25 | CC(=O)CCc1ccc(O)cc1 [4-(4-HYDROXY-1-PHENYL)-2-BUTANONE] |  | 0.36 μg/l air | 
26 | COC(=O)OC1CC/C=C\CCC1 (racemic) | 278.83 μg/l air |  | 
27 | COC(OC)C(C)(C)CC=C(C)C |  |  | Volatility (μg/l air) [4]: 1311.32 μg/l air
28 | CCCCCCO [1-hexanol] | 2070.00 μg/l air |  | 
29 | CC(C)C(=O)OCCc1ccccc1 [2-PHENYLETHYL ISOBUTYRATE] |  | 67.38 μg/l air | Volatility (μg/l air) [5]: 67.38 μg/l air; Volatility (μg/l air) [3]: 67.38 μg/l air
30 | CC1=C(O)C(=O)CC1 [2-HYDROXY-3-METHYL-2-CYCLOPENTEN-1-ONE] |  |  | Volatility (μg/l air) [5]: 396.50 μg/l air
31 | COC(OC)C(C)c1ccccc1 (stereo not shown) [1,1-DIMETHOXY-2-PHENYLPROPANE] | 376.94 μg/l air |  | 
32 | CCCCCC1CCC(=O)O1 (racemic) [(+−)-4-NONANOLIDE] |  | 27.42 μg/l air | Volatility (μg/l air) [3]: 27.42 μg/l air
33 | C=C(C)[C@@H]1CC=C(CO)CC1 | 33.78 μg/l air |  | 
34 | COc1ccc(C=O)cc1 [4-METHOXYBENZALDEHYDE] | 98.47 μg/l air |  | 
35 | CC/C=C\CCCCC=O [(Z)-6-NONENAL] | 2431.73 μg/l air |  | 
36 | CC(=O)OCCC(C)CCC=C(C)C (stereo not shown) [3,7-DIMETHYL-6-OCTENYL ACETATE] |  | 128.72 μg/l air | 
37 | Cc1ccc(OCC=O)cc1 | 89.41 μg/l air |  | 
38 | CC1=CC[C@H](C(C)CC2CCCC2=O)CC1 (stereo partly shown) |  | 2.05 μg/l air | Volatility (μg/l air) [5]: 2.05 μg/l air; Volatility (μg/l air) [3]: 2.05 μg/l air
39 | CC(C)CCOCCc1ccccc1 [3-METHYLBUTYL 2-PHENYLETHYL ETHER] |  | 110.11 μg/l air | Volatility (μg/l air) [5]: 110.11 μg/l air; Volatility (μg/l air) [3]: 110.11 μg/l air
40 | CCCCCCC1CCC(=O)O1 (racemic) [(+−)-4-DECANOLIDE] |  | 10.49 μg/l air | Volatility (μg/l air) [5]: 10.49 μg/l air; Volatility (μg/l air) [3]: 10.49 μg/l air
41 | C[C@H]1[C@@H]2C[C@H](C[C@@]13C=CC(=O)CC3)C2(C)C |  | 4.14 μg/l air | Volatility (μg/l air) [4]: 4.14 μg/l air
42 | C/C=C(\C)C(=O)OCc1ccccc1 [BENZYL (E)-2-METHYL-2-BUTENOATE] |  | 33.88 μg/l air | Volatility (μg/l air) [4]: 33.88 μg/l air
43 | CC1CCCC2(C)CCCCC12O (racemic) | 330.48 μg/l air |  | 
